Source: paper PMC3236199, “Development of Derivatives of 3, 3′-Diindolylmethane as Potent Leishmania donovani Bi-Subunit Topoisomerase IB Poisons” (PLoS ONE, 2011)

Tested on: LdTOP1LS
Experiment: Plasmid cleavage assay
Type: biochemical, Leishmania donovani
Conditions: 20 µM, pHOT1 DNA
Protocol: Cleavage assay was carried out as described previously. Briefly, 50 fmol of pHOT1 supercoiled DNA (containing topoisomerase I cleavage site) and 100 fmol of reconstituted LdTOP1LS were incubated in standard reaction mixture (50 µl) containing 50 mM Tris/HCl (pH 7.5), 100 mM KCl, 10 mM MgCl2, 0.5 mM DTT, 0.5 mM EDTA and 30 µg/ml BSA in the presence of various concentrations of drugs at 37°C for 30 min. The reactions were terminated by adding 1% SDS and 150 µg/ml proteinase K and further incubated for 1 h at 37°C. DNA samples were electrophoresed in a 1% agarose gel containing 0.5 µg/ml EtBr.
The effect of DIM and its derivatives on L. donovani topoisomerase I was examined by plasmid DNA cleavage assay as described. The topoisomerase reaction has three general mechanistic steps: (i) binding of enzyme to the substrate DNA, (ii) single strand breakage and subsequent strand rotation through the break leading to change in linking number, and (iii) strand religation. The second step of reaction is the introduction of a single-stranded nick in the phosphodiester bond of the DNA, through which an intact strand is allowed to pass. […]

## COc1ccc2[nH]cc(Cc3c[nH]c4ccc(OC)cc34)c2c1 [DMODIM, 5,5′-dimethoxy 3,3′-diindolyl methane]
  conversion of closed circular DNA (form I) to nicked circular DNA (form II): didn't cause conversion of all the form I DNA to form II
